The source of these data is PubChem BioAssay (NCI).

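How tested: cells in 96-well plates exposed to compound for 48 hours at five concentrations. GI50 marks 50% less growth. The concentration for full growth arrest is given as TGI.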 Some results are limits rather than exact numbers.

Among the test systems are ACHN renal; LOX IMVI melanoma; OVCAR-5 ovarian; NCI-H460 lung; T-47D breast; UACC-62 melanoma; 786-0 renal.
Common to all, as to test: growth of human tumour cells (NCI), 48 h

`CC1(C#N)CC(C)(C)C(/C=C2/CC(C)(C)C(/C=C3/OC(=N)CC3(C)C)=N2)=N1` (stereo not drawn): the TGI in the experiment with ACHN renal was 58.9 µM; in the experiment with LOX IMVI melanoma it was above 100 µM; in the experiment with OVCAR-5 ovarian it was above 100 µM; with NCI-H460 lung, 39.9 µM; with T-47D breast, 61.8 µM; in the experiment on UACC-62 melanoma it was 66 µM. In the experiment with 786-0 renal, this compound displayed a TGI of 62.6 µM.
On to `NS(=O)(=O)c1ccc(-n2c(-c3cccs3)nc3ccc(I)cc3c2=O)cc1`, for which the TGI stood at 53.8 µM with ACHN renal; 37 µM in the experiment on LOX IMVI melanoma; 59.9 µM in the experiment with OVCAR-5 ovarian; 83 µM in the experiment with NCI-H460 lung; 43.5 µM in the experiment with T-47D breast; 46.2 µM in the experiment on UACC-62 melanoma. The same compound had a TGI in the experiment with 786-0 renal of 77.8 µM. In addition, the GI50 in the experiment on T-47D breast was 19.2 µM.
With `Cc1cn(C2CC(ON3C(=O)c4ccccc4C3=O)C(CO)O2)c(=O)[nH]c1=O` (stereo not drawn), the TGI in the experiment with ACHN renal, in the experiment on LOX IMVI melanoma, in the experiment with OVCAR-5 ovarian, in the experiment on NCI-H460 lung, in the experiment on UACC-62 melanoma and in the experiment with 786-0 renal was above 10 µM each time.
In the case of `COc1ccc2c3c1O[C@H]1C(O)CCC4(O)[C@@H](C2)NCC[C@]314` (stereo partly drawn), the TGI with ACHN renal, with LOX IMVI melanoma, in the experiment with OVCAR-5 ovarian, in the experiment with T-47D breast, with UACC-62 melanoma and with 786-0 renal was above 100 µM throughout.
Turning to `Cc1cccc2c1Oc1cc(Cl)ccc1C2NC(=O)CCN1CCOCC1` (stereo not drawn), the TGI in the experiment with LOX IMVI melanoma, in the experiment on OVCAR-5 ovarian, with NCI-H460 lung, in the experiment on T-47D breast, in the experiment on UACC-62 melanoma and in the experiment on 786-0 renal was above 100 µM in each case.
For the compound `COC(=O)C1=C(C)NC(C)=C(C(=O)OC)C1c1ccc(/[N+]([O-])=C/c2ccccc2)cc1`, the TGI in the experiment with ACHN renal was 32.7 µM; in the experiment with LOX IMVI melanoma it was above 100 µM; in the experiment with OVCAR-5 ovarian, above 100 µM; with NCI-H460 lung, above 100 µM; with T-47D breast, 40.6 µM; in the experiment with UACC-62 melanoma it was above 100 µM. Moreover, the TGI with 786-0 renal stood at 33.3 µM.
Take `C/C(=N\Nc1cc(CN2CCCC2)c(-c2ccc(Cl)cc2)nn1)C(=O)O`: the TGI in the experiment with ACHN renal, with LOX IMVI melanoma, with OVCAR-5 ovarian, in the experiment on NCI-H460 lung, in the experiment with T-47D breast and in the experiment with UACC-62 melanoma was above 100 µM each time. For the same compound, in the experiment with 786-0 renal, the TGI is above 100 µM.
As to `O=C(NCCCNC(=O)c1ccc2c(O)c(O)ccc2c1)c1ccc2c(O)c(O)ccc2c1`, the TGI is 55.9 µM in the experiment on ACHN renal; above 100 µM in the experiment with LOX IMVI melanoma; above 74.4 µM in the experiment on OVCAR-5 ovarian; above 100 µM with T-47D breast; above 90 µM in the experiment on UACC-62 melanoma; 57.9 µM in the experiment with 786-0 renal.
As to `O=C(c1ccccc1)c1c(-c2ccccc2)[nH]n(-c2ccc([N+](=O)[O-])cc2)c(=O)c1=O`, the TGI in the experiment on ACHN renal, with OVCAR-5 ovarian, with NCI-H460 lung, with T-47D breast, with UACC-62 melanoma and in the experiment with 786-0 renal was above 100 µM in each case.
`Clc1ccc(Cl)c(Nc2ccnc(SCc3ccccc3)n2)c1`: the TGI in the experiment on ACHN renal, with LOX IMVI melanoma, in the experiment with OVCAR-5 ovarian, in the experiment with NCI-H460 lung, with T-47D breast and in the experiment on UACC-62 melanoma was above 100 µM in each case. Moreover, in the experiment with 786-0 renal, the TGI was above 100 µM.
Consider `CC1(C)c2ccccc2C(=O)C12CCC(=O)CC2`, for which the TGI in the experiment on ACHN renal, with LOX IMVI melanoma, with OVCAR-5 ovarian, with NCI-H460 lung, in the experiment with T-47D breast and with UACC-62 melanoma was above 100 µM each time. Also, the TGI in the experiment with 786-0 renal was above 100 µM.
As to `N#Cc1sc2nc(/C=C3/C=CC=CC3=O)c(O)n2c1N`, the TGI in the experiment with ACHN renal, in the experiment on LOX IMVI melanoma, in the experiment on OVCAR-5 ovarian, with T-47D breast and in the experiment on 786-0 renal was above 100 µM in each case.
On to `C[C@]12CCC(=O)C=C1CC[C@@H]1C2CC[C@]2(C)c3nn(-c4ccc(F)cc4)nc3CC12` (stereo partly drawn), for which the TGI in the experiment on ACHN renal, in the experiment with OVCAR-5 ovarian, with NCI-H460 lung, with T-47D breast, in the experiment with UACC-62 melanoma and with 786-0 renal was above 100 µM in each case.
For `N#Cc1c(-c2ccccc2)[nH]c2ccccc2c1=O`, the TGI in the experiment with ACHN renal, in the experiment on LOX IMVI melanoma, with OVCAR-5 ovarian, in the experiment on NCI-H460 lung, in the experiment on UACC-62 melanoma and in the experiment with 786-0 renal was above 100 µM in each case.
As to `COC(CN(C(=O)c1ccccc1)C1CCC2(SCCS2)c2[nH]c3ccccc3c21)OC` (stereo not drawn), the TGI was above 100 µM with ACHN renal; 6.67 µM with LOX IMVI melanoma; above 100 µM with OVCAR-5 ovarian; above 100 µM in the experiment on NCI-H460 lung; above 100 µM in the experiment on 786-0 renal.
Turning to `O=C1/C(=C\c2ccc([N+](=O)[O-])o2)SC2N=C(COc3ccc(Cl)cc3)NN12` (stereo not drawn), the TGI worked out at 3.67 µM in the experiment with ACHN renal; 10.5 µM in the experiment on LOX IMVI melanoma; 47.5 µM in the experiment on OVCAR-5 ovarian; 39.5 µM in the experiment with NCI-H460 lung; 7.54 µM in the experiment with T-47D breast; 13.7 µM with 786-0 renal.
For the compound `CCOC(=O)C1(C(=O)OCC)CN(CC)CN(c2ccccc2)C1`, the TGI with ACHN renal was 35.8 µM; in the experiment with LOX IMVI melanoma, above 100 µM; with OVCAR-5 ovarian, 34.9 µM; in the experiment on NCI-H460 lung, above 100 µM; in the experiment on UACC-62 melanoma it was 68.5 µM; in the experiment with 786-0 renal it was 35.2 µM.
As for `CC(C)CC1[C@@H](OCc2ccccc2)COS(=O)N1Cc1ccccc1` (stereo partly drawn), the TGI was 96.2 µM in the experiment with ACHN renal; above 100 µM in the experiment with LOX IMVI melanoma; above 100 µM with OVCAR-5 ovarian; above 100 µM in the experiment on UACC-62 melanoma; above 100 µM with 786-0 renal.
On to `c1cc(-c2ncc(-c3ccc4c(c3)CCCO4)o2)ccn1`, for which the TGI was above 100 µM with ACHN renal; 31 µM in the experiment with LOX IMVI melanoma; above 100 µM with OVCAR-5 ovarian; 63.7 µM in the experiment on T-47D breast; 66.3 µM with UACC-62 melanoma; above 100 µM in the experiment on 786-0 renal.
